The results in this text go back to US11325899B2, “Benzofurane and benzothiophene derivatives as PGE2 receptor modulators” (IDORSIA PHARMACEUTICALS LTD, priority 2017, dated 2022).

Molecules are shown by their SMILES.

Format in all cases: cell-based
Experiment [1] addresses T1, EP4 receptor (Homo sapiens, UniProt P35408).
T1 construct: BT549 breast cancer cells, express high endogenous EP4 levels and very low EP2 levels; host or cells: BT549 breast cancer cells
Put plainly: hEP4 cAMP assay (BT549 breast cancer cells, HTRF cAMP, PGE2 stimulation). The settings on record: antagonistic activity, PGE2 6 nM (EC80). The method, boiled down: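 BT549 cells, with endogenous EP4 and very low EP2, were preincubated 45 min at room temperature with compound in HBSS/HEPES/BSA buffer with 2 mM IBMX. They were then stimulated 30 min with 6 nM PGE2 (EC80). cAMP was measured by HTRF competitive immunoassay against a calibrator; IC50 from duplicate dose-response as % of DMSO control.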
In general terms: cAMP levels reflect the balance of adenylyl cyclase and phosphodiesterase activity.

Experiment [2] has as its target T2, PTGER2 (EP2) (Homo sapiens, UniProt P43116).
T2 construct: host or cells: HEK 293 (PathHunter PTGER2 b-arrestin cell line)
Put plainly: hEP2 b-arrestin assay (PathHunter HEK 293 PTGER2 b-arrestin cells). The settings on record: antagonistic activity, beta-arrestin assay; read-out: hEP2 b-arr IC50. The method, boiled down:
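Antagonism measured as inhibition of PGE2-driven β-arrestin 2 recruitment (enzyme fragment complementation, luminescence) in engineered HEK293 EP2 cells. Agonist: 5 μM PGE2, ~EC80, 120 min at 37 °C after 15 min compound preincubation; test range 10 μM-2 nM or 1 μM-0.2 nM, duplicates, IC50 fitted.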

In experiment [3] the target is T3, PTGER4 (EP4) (Homo sapiens, UniProt P35408).
T3 construct: host or cells: HEK 293 (PathHunter PTGER4 b-arrestin cell line)
Description: hEP4 b-arrestin assay (PathHunter HEK 293 PTGER4 b-arrestin cells). Particulars: antagonistic activity, beta-arrestin assay; read-out: hEP4 b-arr IC50. The procedure, abridged:
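β-Arrestin recruitment to EP4 was read as enzyme-fragment-complementation chemiluminescence in stably transfected HEK 293 cells. After 15 min compound preincubation at 37 °C (ranges 10 μM–2 nM or 1 μM–0.2 nM), cells were stimulated 120 min with PGE2 at 20 nM, its EC80. IC50 values were fitted from duplicates, with repeat measurements averaged.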

T1 sequence (P35408 whole entry): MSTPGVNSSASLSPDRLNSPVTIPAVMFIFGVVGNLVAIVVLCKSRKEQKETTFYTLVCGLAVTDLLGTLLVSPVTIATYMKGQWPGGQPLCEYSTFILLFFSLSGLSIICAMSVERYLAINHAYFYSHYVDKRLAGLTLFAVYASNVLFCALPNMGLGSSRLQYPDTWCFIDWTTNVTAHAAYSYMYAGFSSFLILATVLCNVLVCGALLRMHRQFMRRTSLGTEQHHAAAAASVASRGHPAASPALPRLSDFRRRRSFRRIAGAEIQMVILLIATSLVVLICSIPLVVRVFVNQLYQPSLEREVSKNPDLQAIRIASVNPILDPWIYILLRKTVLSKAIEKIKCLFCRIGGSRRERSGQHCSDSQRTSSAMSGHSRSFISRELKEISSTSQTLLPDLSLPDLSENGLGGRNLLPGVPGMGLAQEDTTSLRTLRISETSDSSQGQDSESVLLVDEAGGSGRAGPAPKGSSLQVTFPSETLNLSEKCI
T3 sequence (P35408 whole entry): as above
T2 sequence (P43116 whole entry): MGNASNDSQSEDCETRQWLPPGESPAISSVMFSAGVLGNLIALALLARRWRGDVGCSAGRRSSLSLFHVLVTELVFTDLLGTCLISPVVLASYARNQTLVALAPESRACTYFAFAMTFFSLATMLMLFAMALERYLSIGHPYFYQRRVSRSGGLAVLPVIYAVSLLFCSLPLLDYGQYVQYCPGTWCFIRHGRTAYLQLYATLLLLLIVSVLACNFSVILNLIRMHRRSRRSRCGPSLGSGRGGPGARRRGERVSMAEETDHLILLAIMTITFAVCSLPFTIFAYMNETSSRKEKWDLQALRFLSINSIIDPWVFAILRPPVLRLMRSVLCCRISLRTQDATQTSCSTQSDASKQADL

For the compound `CCOc1cc(-c2cc(NCCc3c(C)sc4c(C)cccc34)ncn2)ccc1C(C)C(=O)O` (racemic) [Example 126, rac-2-(4-{6-[2-(2,7-Dimethyl-benzo[b]thiophen-3-yl)-ethylamino]-pyrimidin-4-yl}-2-ethoxy-phenyl)-propionic acid], the IC50 (commonly the midpoint of a concentration-inhibition curve) amounted to 425 nM in experiment [1], 104 nM in experiment [2] and 423 nM in experiment [3].
The matching figures for `COc1ccc(Cl)c2c(CCNc3cc(-c4cc(C)c(C(=O)O)s4)ncn3)c(C)sc12` [Example 5, 5-{6-[2-(4-Chloro-7-methoxy-2-methyl-benzo[b]thiophen-3-yl)-ethylamino]-pyrimidin-4-yl}-3-methyl-thiophene-2-carboxylic acid]: 479 nM, 106 nM and 247 nM.
As to `Cc1cc(-c2cc(NCCc3c(C)oc4ccccc34)ncn2)sc1C(=O)O` [Example 6, 3-Methyl-5-{6-[2-(2-methyl-benzofuran-3-yl)-ethylamino]-pyrimidin-4-yl}-thiophene-2-carboxylic acid], the results for the IC50 in experiment [1], in experiment [2] and in experiment [3] were 549 nM, 5 nM and 673 nM, respectively.
On the same counts, the results for `CCc1oc2c(C)cc(F)cc2c1CCNc1cc(-c2cc(C)c(C(=O)O)s2)ncn1` [Example 7, 5-{6-[2-(2-Ethyl-5-fluoro-7-methyl-benzofuran-3-yl)-ethylamino]-pyrimidin-4-yl}-3-methyl-thiophene-2-carboxylic acid] are 624 nM, 283 nM and 577 nM.
`Cc1sc2c(C)cccc2c1CCNc1cc(-c2ccc(C(=O)O)cc2)ncn1` [Example 8, 4-{6-[2-(2,7-Dimethyl-benzo[b]thiophen-3-yl)-ethylamino]-pyrimidin-4-yl}-benzoic acid]: the IC50 in experiment [1] turned out to be 369 nM; in experiment [2], 16 nM; in experiment [3], 1170 nM.
With `COc1ccc(Cl)c2c(CCNc3cc(-c4ccc(C(=O)O)c(O)c4)ncn3)c(C)sc12` [Example 9, 4-{6-[2-(4-Chloro-7-methoxy-2-methyl-benzo[b]thiophen-3-yl)-ethylamino]-pyrimidin-4-yl}-2-hydroxy-benzoic acid], the values for the IC50 in experiment [1], in experiment [2] and in experiment [3] were 550 nM, 118 nM and 1650 nM, respectively.
Regarding `Cc1sc2c(C)cc(F)cc2c1CCNc1cc(-c2ccc(C(=O)O)c(O)c2)ncn1` [Example 10, 4-{6-[2-(5-Fluoro-2,7-dimethyl-benzo[b]thiophen-3-yl)-ethylamino]-pyrimidin-4-yl}-2-hydroxy-benzoic acid], the IC50 in experiment [1] is 860 nM; in experiment [2], 58 nM; in experiment [3], 1040 nM.
On the same counts, the results for `CSc1cc(-c2cc(NCCc3c(C#N)sc4c(C)cc(F)cc34)ncn2)ccc1C(=O)O` [Example 12, 4-{6-[2-(2-Cyano-5-fluoro-7-methyl-benzo[b]thiophen-3-yl)-ethylamino]-pyrimidin-4-yl}-2-methylsulfanyl-benzoic acid] are 20 nM, 4 nM and 112 nM.
On the same counts, the results for `COc1cccc2c(CCNc3cc(-c4ccc(C(=O)O)c(SC)c4)ncn3)c(C#N)sc12` [Example 13, 4-{6-[2-(2-Cyano-7-methoxy-benzo[b]thiophen-3-yl)-ethylamino]-pyrimidin-4-yl}-2-methylsulfanyl-benzoic acid] are 27 nM, 51 nM and 114 nM.
For `CCOc1cc(-c2cc(NCCc3c(C)sc4c(C)cc(F)cc34)ncn2)sc1/C=C/C(=O)O` [Example 96, (E)-3-(3-Ethoxy-5-{6-[2-(5-fluoro-2,7-dimethyl-benzo[b]thiophen-3-yl)-ethylamino]-pyrimidin-4-yl}-thiophen-2-yl)-acrylic acid], the IC50 is 42 nM in experiment [1], 20 nM in experiment [2] and 16 nM in experiment [3].
For `CCOc1cc(-c2cc(NCCc3c(C)sc4c(C)cc(F)cc34)ncn2)sc1CCC(=O)O` [Example 97, 3-(3-Ethoxy-5-{6-[2-(5-fluoro-2,7-dimethyl-benzo[b]thiophen-3-yl)-ethylamino]-pyrimidin-4-yl}-thiophen-2-yl)-propionic acid], the IC50 in experiment [1] came to 105 nM; in experiment [2], 49 nM; in experiment [3], 84 nM.
In the case of `COc1ccc(Cl)c2c(CCNc3cc(-c4ccc(C(=O)O)c(OC(C)C)c4)ncn3)c(C)sc12` [Example 98, 4-{6-[2-(4-Chloro-7-methoxy-2-methyl-benzo[b]thiophen-3-yl)-ethylamino]-pyrimidin-4-yl}-2-isopropoxy-benzoic acid], the IC50 in experiment [1] worked out at 216 nM; in experiment [2], 55 nM; in experiment [3], 340 nM.
On the same counts, the results for `CCCOc1cc(-c2cc(NCCc3c(C)sc4c(C)c(F)ccc34)ncn2)ccc1C(=O)O` [Example 99, 4-{6-[2-(6-Fluoro-2,7-dimethyl-benzo[b]thiophen-3-yl)-ethylamino]-pyrimidin-4-yl}-2-propoxy-benzoic acid] are 450 nM, 5 nM and 238 nM.
As for `CCCOc1cc(-c2cc(NCCc3c(C)sc4c(C)cc(F)cc34)ncn2)ccc1C(=O)O` [Example 100, 4-{6-[2-(5-Fluoro-2,7-dimethyl-benzo[b]thiophen-3-yl)-ethylamino]-pyrimidin-4-yl}-2-propoxy-benzoic acid], the results for the IC50 in experiment [1], in experiment [2] and in experiment [3] were 457 nM, 12 nM and 299 nM, respectively.
On the same counts, the results for `CCCOc1cc(-c2cc(NCCc3c(C)sc4c(OC)ccc(Cl)c34)ncn2)ccc1C(=O)O` [Example 101, 4-{6-[2-(4-Chloro-7-methoxy-2-methyl-benzo[b]thiophen-3-yl)-ethylamino]-pyrimidin-4-yl}-2-propoxy-benzoic acid] are 482 nM, 22 nM and 505 nM.
With `CCCOc1cc(-c2cc(NCCc3c(C)sc4c(Cl)ccc(Cl)c34)ncn2)ccc1C(=O)O` [Example 102, 4-{6-[2-(4,7-Dichloro-2-methyl-benzo[b]thiophen-3-yl)-ethylamino]-pyrimidin-4-yl}-2-propoxy-benzoic acid], the IC50 was determined as 867 nM in experiment [1], 26 nM in experiment [2] and 810 nM in experiment [3].
As to `CCOc1cc(-c2cc(NCCc3c(C)sc4c(C)ccc(F)c34)ncn2)cc(C)c1C(=O)O` [Example 103, 2-Ethoxy-4-{6-[2-(4-fluoro-2,7-dimethyl-benzo[b]thiophen-3-yl)-ethylamino]-pyrimidin-4-yl}-6-methyl-benzoic acid], the IC50 in experiment [1] was found to be 331 nM; in experiment [2], 79 nM; in experiment [3] it was 521 nM.
As for `CCOc1cc(-c2cc(NCCc3c(C#N)sc4c(C)cc(F)cc34)ncn2)ccc1CC(=O)O` [Example 104, (4-{6-[2-(2-Cyano-5-fluoro-7-methyl-benzo[b]thiophen-3-yl)-ethylamino]-pyrimidin-4-yl}-2-ethoxy-phenyl)-acetic acid], the IC50 was determined as 30 nM in experiment [1], 36 nM in experiment [2] and 161 nM in experiment [3].
In the case of `CCOc1cc(-c2cc(NCCc3c(C)sc4c(OC)ccc(F)c34)ncn2)ccc1CC(=O)O` [Example 105, (2-Ethoxy-4-{6-[2-(4-fluoro-7-methoxy-2-methyl-benzo[b]thiophen-3-yl)-ethylamino]-pyrimidin-4-yl}-phenyl)-acetic acid], the IC50 was 125 nM in experiment [1], 33 nM in experiment [2] and 58 nM in experiment [3].
For the compound `CCOc1cc(-c2cc(NCCc3c(C)sc4c(C)ccc(F)c34)ncn2)ccc1CC(=O)O` [Example 107, (2-Ethoxy-4-{6-[2-(4-fluoro-2,7-dimethyl-benzo[b]thiophen-3-yl)-ethylamino]-pyrimidin-4-yl}-phenyl)-acetic acid], the figures for the IC50 in experiment [1], in experiment [2] and in experiment [3] were 255 nM, 38 nM and 167 nM, respectively.
With `CCOc1cc(-c2cc(NCCc3c(C)sc4c(C)cccc34)ncn2)ccc1CC(=O)O` [Example 109, (4-{6-[2-(2,7-Dimethyl-benzo[b]thiophen-3-yl)-ethylamino]-pyrimidin-4-yl}-2-ethoxy-phenyl)-acetic acid], the IC50 in experiment [1] amounted to 290 nM; in experiment [2] it was 24 nM; in experiment [3], 405 nM.
Turning to `CCOc1cc(-c2cc(NCCc3c(C)sc4c(C)cc(F)cc34)ncn2)ccc1CC(=O)O` [Example 110, (2-Ethoxy-4-{6-[2-(5-fluoro-2,7-dimethyl-benzo[b]thiophen-3-yl)-ethylamino]-pyrimidin-4-yl}-phenyl)-acetic acid], the IC50 in experiment [1] was 296 nM; in experiment [2], 25 nM; in experiment [3], 403 nM.
For the compound `CCOc1cc(-c2cc(NCCc3c(C)sc4c(C)c(F)ccc34)ncn2)ccc1CC(=O)O` [Example 112, (2-Ethoxy-4-{6-[2-(6-fluoro-2,7-dimethyl-benzo[b]thiophen-3-yl)-ethylamino]-pyrimidin-4-yl}-phenyl)-acetic acid], the IC50 in experiment [1] came to 450 nM; in experiment [2] it was 42 nM; in experiment [3] it was 665 nM.
